Our source for the target mRNA knockdown values is the OligoGym collection.

Several values for one entry are separate records, joined by “and”; a condition that tells them apart may be missing. Equal entries are not always repeated. HELM strings list units from the 5' end as sugar, base in round brackets, then linkage (d deoxyribose, r ribose, m 2'-O-methyl, p phosphodiester). Strings are as the collection lists them, not checked against the first reports. ss, as = sense and antisense strand; [lna] = locked nucleic acid (LNA); [hna] = hexitol nucleic acid; [fl2r] = 2'-fluoro
Note: test system not given here.

The conditions of the series: siRNA.
Consider “RNA1{[hna](G)p.[hna](A)p.[hna](C)p.r(G)p.r(U)p.r(A)p.r(A)p.r(A)p.r(C)p.r(G)p.r(G)p.r(C)p.r(C)p.r(A)p.r(C)p.r(A)p.r(A)p.[hna](G)p.[hna](U)p.[hna](U)p.d(T)}|RNA2{r(A)p.[hna](C)p.r(U)p.r(U)p.r(G)p.r(U)p.r(G)p.r(G)p.r(C)p.r(C)p.r(G)p.r(U)p.r(U)p.r(U)p.r(A)p.r(C)p.r(G)p.[hna](U)p.[hna](C)p.[hna](G)p.d(T)}$$$RNA1{StrandType:ss}|RNA2{StrandType:as}$”, for which the target mRNA knockdown turned out to be 77.4%.
For “RNA1{[hna](G)p.[hna](A)p.[hna](C)p.r(G)p.r(U)p.r(A)p.r(A)p.r(A)p.r(C)p.r(G)p.r(G)p.r(C)p.r(C)p.r(A)p.r(C)p.r(A)p.r(A)p.[hna](G)p.[hna](U)p.[hna](U)p.d(T)}|RNA2{r(A)p.m(C)p.r(U)p.r(U)p.r(G)p.r(U)p.r(G)p.r(G)p.r(C)p.r(C)p.r(G)p.r(U)p.r(U)p.r(U)p.r(A)p.r(C)p.r(G)p.r(U)p.r(C)p.r(G)p.r(C)}$$$RNA1{StrandType:ss}|RNA2{StrandType:as}$” the value was 84%; for “RNA1{[hna](G)p.[hna](A)p.[hna](C)p.r(G)p.r(U)p.r(A)p.r(A)p.r(A)p.r(C)p.r(G)p.r(G)p.r(C)p.r(C)p.r(A)p.r(C)p.r(A)p.r(A)p.[hna](G)p.[hna](U)p.[hna](U)p.d(T)}|RNA2{r(A)p.r(C)p.[hna](U)p.r(U)p.r(G)p.r(U)p.r(G)p.r(G)p.r(C)p.r(C)p.r(G)p.r(U)p.r(U)p.r(U)p.r(A)p.r(C)p.r(G)p.[hna](U)p.[hna](C)p.[hna](G)p.d(T)}$$$RNA1{StrandType:ss}|RNA2{StrandType:as}$”, 80.6%.
Take “RNA1{[hna](G)p.[hna](A)p.[hna](C)p.r(G)p.r(U)p.r(A)p.r(A)p.r(A)p.r(C)p.r(G)p.r(G)p.r(C)p.r(C)p.r(A)p.r(C)p.r(A)p.r(A)p.[hna](G)p.[hna](U)p.[hna](U)p.d(T)}|RNA2{r(A)p.r(C)p.r(U)p.r(U)p.r(G)p.r(U)p.r(G)p.r(G)p.r(C)p.r(C)p.r(G)p.r(U)p.r(U)p.r(U)p.r(A)p.r(C)p.r(G)p.[hna](U)p.[hna](C)p.[hna](G)p.d(T)}$$$RNA1{StrandType:ss}|RNA2{StrandType:as}$”: the target mRNA knockdown came out at 84.6%.
In turn, “RNA1{[hna](G)p.[hna](A)p.[hna](C)p.r(G)p.r(U)p.r(A)p.r(A)p.r(A)p.r(C)p.r(G)p.r(G)p.r(C)p.r(C)p.r(A)p.r(C)p.r(A)p.r(A)p.[hna](G)p.[hna](U)p.[hna](U)p.d(T)}|RNA2{r(A)p.r(C)p.r(U)p.r(U)p.r(G)p.r(U)p.r(G)p.r(G)p.r(C)p.r(C)p.r(G)p.r(U)p.r(U)p.r(U)p.r(A)p.r(C)p.r(G)p.r(U)p.r(C)p.r(G)p.r(C)}$$$RNA1{StrandType:ss}|RNA2{StrandType:as}$” yielded a target mRNA knockdown of 89%.
With “RNA1{[hna](G)p.[hna](A)p.[hna](C)p.r(G)p.r(U)p.r(A)p.r(A)p.r(A)p.r(C)p.r(G)p.r(G)p.r(C)p.r(C)p.r(A)p.r(C)p.r(A)p.r(A)p.[hna](G)p.[hna](U)p.r(U)p.d(T)}|RNA2{r(A)p.r(C)p.[lna](T)p.r(U)p.r(G)p.[lna](T)p.r(G)p.r(G)p.r(C)p.r(C)p.r(G)p.r(U)p.r(U)p.[lna](T)p.r(A)p.r(C)p.r(G)p.[lna](T)p.r(C)p.[lna](G)p.[lna](C)}$$$RNA1{StrandType:ss}|RNA2{StrandType:as}$” the figure was 5.4%; with “RNA1{[hna](G)p.[hna](A)p.[hna](C)p.r(G)p.r(U)p.r(A)p.r(A)p.r(A)p.r(C)p.r(G)p.r(G)p.r(C)p.r(C)p.r(A)p.r(C)p.r(A)p.r(A)p.[hna](G)p.[hna](U)p.r(U)p.d(T)}|RNA2{r(A)p.r(C)p.r(U)p.r(U)p.r(G)p.r(U)p.r(G)p.r(G)p.r(C)p.r(C)p.r(G)p.r(U)p.r(U)p.r(U)p.r(A)p.r(C)p.r(G)p.r(U)p.[lna](C)p.[lna](G)p.r(C)}$$$RNA1{StrandType:ss}|RNA2{StrandType:as}$”, 84.7%.
With “RNA1{[lna](A)p.r(A)p.r(A)p.r(C)p.r(A)p.r(U)p.r(G)p.r(C)p.r(A)p.r(G)p.r(A)p.r(A)p.r(A)p.r(A)p.r(U)p.r(G)p.r(C)p.r(U)p.r(G)p.[lna](T)p.[lna](T)}|RNA2{r(C)p.r(A)p.r(G)p.r(C)p.r(A)p.r(U)p.r(U)p.r(U)p.r(U)p.r(C)p.r(U)p.r(G)p.r(C)p.r(A)p.r(U)p.r(G)p.r(U)p.r(U)p.r(U)p.r(T)p.r(T)}$$$RNA1{StrandType:ss}|RNA2{StrandType:as}$”, the target mRNA knockdown was determined as 82%.
Take “RNA1{[lna](A)p.r(C)p.r(U)p.r(G)p.r(U)p.r(C)p.r(A)p.r(A)p.r(A)p.r(C)p.r(C)p.r(C)p.r(G)p.r(G)p.r(U)p.r(A)p.r(A)p.r(U)p.r(U)p.[lna](T)p.[lna](T)}|RNA2{r(A)p.r(A)p.r(U)p.r(U)p.r(A)p.r(C)p.r(C)p.r(G)p.r(G)p.r(G)p.r(U)p.r(U)p.r(U)p.r(G)p.r(A)p.r(C)p.r(A)p.r(G)p.r(U)p.[lna](T)p.[lna](T)}$$$RNA1{StrandType:ss}|RNA2{StrandType:as}$”: the target mRNA knockdown was 52%.
Regarding “RNA1{[lna](A)p.r(U)p.r(C)p.r(U)p.r(G)p.r(A)p.r(A)p.r(G)p.r(A)p.r(A)p.r(G)p.r(G)p.r(A)p.r(G)p.r(A)p.r(A)p.r(A)p.r(A)p.r(A)p.[lna](T)p.[lna](T)}|RNA2{[lna](T)p.r(U)p.r(U)p.r(U)p.r(U)p.r(C)p.r(U)p.r(C)p.r(C)p.r(U)p.r(U)p.r(C)p.r(U)p.r(U)p.r(C)p.r(A)p.r(G)p.r(A)p.r(U)p.[lna](T)p.[lna](T)}$$$RNA1{StrandType:ss}|RNA2{StrandType:as}$”, the target mRNA knockdown was 65% and 75%.
With “RNA1{[lna](A)p.r(U)p.r(C)p.r(U)p.r(G)p.r(A)p.r(A)p.r(G)p.r(A)p.r(A)p.r(G)p.r(G)p.r(A)p.r(G)p.r(A)p.r(A)p.r(A)p.r(A)p.r(A)p.[lna](T)p.[lna](T)}|RNA2{r(U)p.r(U)p.r(U)p.r(U)p.r(U)p.r(C)p.r(U)p.r(C)p.r(C)p.r(U)p.r(U)p.r(C)p.r(U)p.r(U)p.r(C)p.r(A)p.r(G)p.r(A)p.r(U)p.[lna](T)p.[lna](T)}$$$RNA1{StrandType:ss}|RNA2{StrandType:as}$”, the target mRNA knockdown is 93% and 95%.
“RNA1{[lna](C)p.r(U)p.r(A)p.r(A)p.r(G)p.r(G)p.r(A)p.r(C)p.r(C)p.r(U)p.r(A)p.r(A)p.r(C)p.r(A)p.r(A)p.r(A)p.r(G)p.r(U)p.r(U)p.r(U)p.r(U)}|RNA2{r(A)p.r(A)p.r(C)p.r(U)p.r(U)p.r(U)p.r(G)p.r(U)p.r(U)p.r(A)p.r(G)p.r(G)p.r(U)p.r(C)p.r(C)p.r(U)p.r(U)p.r(A)p.r(G)p.r(U)p.r(U)}$$$RNA1{StrandType:ss}|RNA2{StrandType:as}$” registered a target mRNA knockdown of 64%.
In turn, “RNA1{[lna](G)p.[lna](C)p.[lna](T)p.r(G)p.r(A)p.r(C)p.[lna](C)p.r(C)p.r(U)p.[lna](G)p.r(A)p.r(A)p.r(G)p.[lna](T)p.[lna](T)p.r(C)p.r(A)p.r(U)p.r(C)p.[lna](T)p.[lna](T)}|RNA2{r(G)p.r(A)p.r(U)p.r(G)p.r(A)p.r(A)p.r(C)p.r(U)p.r(U)p.r(C)p.r(A)p.r(G)p.r(G)p.r(G)p.r(U)p.r(C)p.r(A)p.r(G)p.r(C)p.[lna](T)p.[lna](T)}$$$RNA1{StrandType:ss}|RNA2{StrandType:as}$” showed a target mRNA knockdown of 0%.
As for “RNA1{[lna](G)p.r(C)p.r(A)p.r(G)p.r(C)p.r(A)p.r(C)p.r(G)p.r(A)p.r(C)p.r(U)p.r(U)p.r(C)p.r(U)p.r(U)p.r(C)p.r(A)p.r(A)p.r(G)p.r(U)p.r(U)}|RNA2{r(C)p.[fl2r](U)p.r(U)p.r(G)p.r(A)p.r(A)p.r(G)p.r(A)p.r(A)p.r(G)p.r(U)p.r(C)p.r(G)p.r(U)p.r(G)p.r(C)p.r(U)p.r(G)p.r(C)p.r(U)p.r(U)}$$$RNA1{StrandType:ss}|RNA2{StrandType:as}$”, the target mRNA knockdown is 69.3%.
With “RNA1{[lna](G)p.r(C)p.r(A)p.r(G)p.r(C)p.r(A)p.r(C)p.r(G)p.r(A)p.r(C)p.r(U)p.r(U)p.r(C)p.r(U)p.r(U)p.r(C)p.r(A)p.r(A)p.r(G)p.r(U)p.r(U)}|RNA2{r(C)p.m(U)p.r(U)p.r(G)p.r(A)p.r(A)p.r(G)p.r(A)p.r(A)p.r(G)p.r(U)p.r(C)p.r(G)p.r(U)p.r(G)p.r(C)p.r(U)p.r(G)p.r(C)p.r(U)p.r(U)}$$$RNA1{StrandType:ss}|RNA2{StrandType:as}$” the figure was 68.6%; with “RNA1{[lna](G)p.r(C)p.r(A)p.r(G)p.r(C)p.r(A)p.r(C)p.r(G)p.r(A)p.r(C)p.r(U)p.r(U)p.r(C)p.r(U)p.r(U)p.r(C)p.r(A)p.r(A)p.r(G)p.r(U)p.r(U)}|RNA2{r(C)p.r(U)p.r(U)p.r(G)p.r(A)p.r(A)p.r(G)p.r(A)p.r(A)p.r(G)p.r(U)p.r(C)p.r(G)p.r(U)p.r(G)p.r(C)p.r(U)p.r(G)p.r(C)p.r(U)p.r(U)}$$$RNA1{StrandType:ss}|RNA2{StrandType:as}$”, 73.2%.
“RNA1{[lna](G)p.r(C)p.r(U)p.r(G)p.r(A)p.r(C)p.r(C)p.r(C)p.r(U)p.r(G)p.r(A)p.r(A)p.r(G)p.r(U)p.r(U)p.r(C)p.r(A)p.r(U)p.r(C)p.[lna](T)p.[lna](T)}|RNA2{r(G)p.r(A)p.r(U)p.r(G)p.r(A)p.r(A)p.r(C)p.r(U)p.r(U)p.r(C)p.r(A)p.r(G)p.r(G)p.r(G)p.r(U)p.r(C)p.r(A)p.r(G)p.r(C)p.[lna](T)p.[lna](T)}$$$RNA1{StrandType:ss}|RNA2{StrandType:as}$” returned a target mRNA knockdown of 61%.
Take “RNA1{[lna](G)p.r(G)p.r(A)p.r(U)p.r(G)p.r(A)p.r(G)p.r(G)p.r(A)p.r(A)p.r(G)p.r(G)p.r(C)p.r(A)p.r(A)p.r(U)p.r(U)p.r(U)p.r(A)p.[lna](T)p.[lna](T)}|RNA2{r(U)p.r(A)p.r(A)p.r(A)p.r(U)p.r(U)p.r(G)p.r(C)p.r(C)p.r(U)p.r(U)p.r(C)p.r(C)p.r(U)p.r(C)p.r(A)p.r(U)p.r(C)p.r(C)p.[lna](T)p.[lna](T)}$$$RNA1{StrandType:ss}|RNA2{StrandType:as}$”: the target mRNA knockdown turned out to be 50%.
With “RNA1{[lna](G)p.r(G)p.r(C)p.r(C)p.r(U)p.r(U)p.r(U)p.r(C)p.r(A)p.r(C)p.r(U)p.r(A)p.r(C)p.r(U)p.r(C)p.r(C)p.r(U)p.r(A)p.r(C)p.[lna](G)p.[lna](A)}|RNA2{r(G)p.r(U)p.r(A)p.r(G)p.r(G)p.r(A)p.r(G)p.r(U)p.r(A)p.r(G)p.r(U)p.r(G)p.r(A)p.r(A)p.r(A)p.r(G)p.r(G)p.r(C)p.r(C)p.r(A)p.r(G)}$$$RNA1{StrandType:ss}|RNA2{StrandType:as}$”, the target mRNA knockdown is 83%.
